In ChEMBL document CHEMBL1152332, “Calothrixins, a new class of human DNA topoisomerase I poisons” (J Nat Prod, 2009):
Active and inactive are the calls of the source. The calls are words filed in the database; no cut-off is given here.

Legend:
[1] = target: T1, DNA topoisomerase 1 (Homo sapiens) (UniProt P11387); assay: Induction of human DNA topoisomerase 1-mediated DNA cleavage at 1 to 10 uM by polyacrylamide gel electrophoresis
T1 sequence (whole entry): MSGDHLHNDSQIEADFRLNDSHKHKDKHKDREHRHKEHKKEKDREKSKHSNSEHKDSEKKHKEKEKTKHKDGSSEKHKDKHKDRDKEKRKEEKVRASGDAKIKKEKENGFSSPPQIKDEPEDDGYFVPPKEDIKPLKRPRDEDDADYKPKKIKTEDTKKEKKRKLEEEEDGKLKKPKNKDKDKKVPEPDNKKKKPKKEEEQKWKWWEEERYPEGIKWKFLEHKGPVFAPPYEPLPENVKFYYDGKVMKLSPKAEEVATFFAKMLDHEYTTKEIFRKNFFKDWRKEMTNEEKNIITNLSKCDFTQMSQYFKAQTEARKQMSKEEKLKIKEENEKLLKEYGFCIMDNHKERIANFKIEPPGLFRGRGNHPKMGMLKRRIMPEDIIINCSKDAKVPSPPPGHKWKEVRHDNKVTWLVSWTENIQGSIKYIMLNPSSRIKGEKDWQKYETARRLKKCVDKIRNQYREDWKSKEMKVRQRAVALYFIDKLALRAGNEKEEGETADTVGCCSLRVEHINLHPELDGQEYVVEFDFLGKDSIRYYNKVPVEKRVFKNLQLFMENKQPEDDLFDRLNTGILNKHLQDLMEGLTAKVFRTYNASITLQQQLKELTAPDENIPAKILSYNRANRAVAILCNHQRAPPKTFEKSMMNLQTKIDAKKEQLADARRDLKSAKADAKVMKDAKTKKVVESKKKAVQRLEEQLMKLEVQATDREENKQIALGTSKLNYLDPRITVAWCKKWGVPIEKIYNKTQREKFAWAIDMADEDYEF

[2] = target: T1, DNA topoisomerase 1 (Homo sapiens); assay: Reversal of drug-stabilized human DNA topoisomerase 1-DNA binary complex at 5 uM within 5 mins by polyacrylamide gel electrophoresis in presence of 0.35 M NaCl
CCRF-CEM [3] = assay: Cell cycle arrest in human CCRF-CEM cells assessed as accumulation at S phase at 1 uM treated for 3 hrs followed by drug washout and 15 hrs incubation in drug free medium by flow cytometry; format: functional
CCRF-CEM [4] = assay: Cell cycle arrest in human CCRF-CEM cells assessed as accumulation at G0 phase at 10 uM treated for 3 hrs followed by drug washout and 15 hrs incubation in drug free medium by flow cytometry; format: functional
CCRF-CEM [5] = assay: Cell cycle arrest in human CCRF-CEM cells assessed as accumulation at G2/M phase at 10 uM treated for 3 hrs measured for 15 hrs after nocodazole treatment by flow cytometry in presence of mitotic inhibitor nocodazole; format: functional
CCRF-CEM [6] = assay: Cell cycle arrest in human CCRF-CEM cells assessed as accumulation at S phase at 0.1 uM treated for 3 hrs measured for 15 hrs after nocodazole treatment by flow cytometry in presence of mitotic inhibitor nocodazole; format: functional
CCRF-CEM [7] = assay: Cell cycle arrest in human CCRF-CEM cells assessed as accumulation at S phase at 0.1 uM treated for 3 hrs followed by drug washout and 15 hrs incubation in drug free medium by flow cytometry; format: functional
CCRF-CEM [8] = assay: Cell cycle arrest in human CCRF-CEM cells assessed as accumulation at G2/M phase at 1 uM treated for 3 hrs measured for 15 hrs after nocodazole treatment by flow cytometry in presence of mitotic inhibitor nocodazole; format: functional
CCRF-CEM [9] = assay: Cell cycle arrest in human CCRF-CEM cells assessed as accumulation at subG1 phase at 1 uM treated for 3 hrs followed by drug washout and 15 hrs incubation in drug free medium by flow cytometry; format: functional
CCRF-CEM [10] = assay: Cell cycle arrest in human CCRF-CEM cells assessed as accumulation at subG1 phase at 10 uM treated for 3 hrs followed by drug washout and 15 hrs incubation in drug free medium by flow cytometry; format: functional
CCRF-CEM [11] = assay: Cell cycle arrest in human CCRF-CEM cells assessed as accumulation at G0 phase at 0.1 uM treated for 3 hrs measured for 15 hrs after nocodazole treatment by flow cytometry in presence of mitotic inhibitor nocodazole; format: functional
CCRF-CEM [12] = assay: Cell cycle arrest in human CCRF-CEM cells assessed as accumulation at G0 phase at 0.1 uM treated for 3 hrs followed by drug washout and 15 hrs incubation in drug free medium by flow cytometry; format: functional
CCRF-CEM [13] = assay: Cell cycle arrest in human CCRF-CEM cells assessed as accumulation at G2/M phase at 0.1 uM treated for 3 hrs followed by drug washout and 15 hrs incubation in drug free medium by flow cytometry; format: functional
CCRF-CEM [14] = assay: Cell cycle arrest in human CCRF-CEM cells assessed as accumulation at G0 phase at 10 uM treated for 3 hrs measured for 15 hrs after nocodazole treatment by flow cytometry in presence of mitotic inhibitor nocodazole; format: functional
CCRF-CEM [15] = assay: Cell cycle arrest in human CCRF-CEM cells assessed as accumulation at G0 phase at 1 uM treated for 3 hrs followed by drug washout and 15 hrs incubation in drug free medium by flow cytometry; format: functional
CCRF-CEM [16] = assay: Cell cycle arrest in human CCRF-CEM cells assessed as accumulation at G2/M phase at 10 uM treated for 3 hrs followed by drug washout and 15 hrs incubation in drug free medium by flow cytometry; format: functional
CCRF-CEM [17] = assay: Cell cycle arrest in human CCRF-CEM cells assessed as accumulation at G2/M phase at 0.1 uM treated for 3 hrs measured for 15 hrs after nocodazole treatment by flow cytometry in presence of mitotic inhibitor nocodazole; format: functional
CCRF-CEM [18] = assay: Cell cycle arrest in human CCRF-CEM cells assessed as accumulation at G0 phase at 1 uM treated for 3 hrs measured for 15 hrs after nocodazole treatment by flow cytometry in presence of mitotic inhibitor nocodazole; format: functional
CCRF-CEM [19] = assay: Cytotoxicity against p38-proficient human CCRF-CEM cells after 3 days by MTT assay; format: functional, cell-based; conditions: 72 h
CCRF-CEM [20] = assay: Cell cycle arrest in human CCRF-CEM cells assessed as accumulation at subG1 phase at 1 uM treated for 3 hrs measured for 15 hrs after nocodazole treatment by flow cytometry in presence of mitotic inhibitor nocodazole; format: functional
CCRF-CEM [21] = assay: Cell cycle arrest in human CCRF-CEM cells assessed as accumulation at S phase at 10 uM treated for 3 hrs measured for 15 hrs after nocodazole treatment by flow cytometry in presence of mitotic inhibitor nocodazole; format: functional
CCRF-CEM [22] = assay: Cell cycle arrest in human CCRF-CEM cells assessed as accumulation at subG1 phase at 0.1 uM treated for 3 hrs measured for 15 hrs after nocodazole treatment by flow cytometry in presence of mitotic inhibitor nocodazole; format: functional
CCRF-CEM [23] = assay: Cell cycle arrest in human CCRF-CEM cells assessed as accumulation at subG1 phase at 0.1 uM treated for 3 hrs followed by drug washout and 15 hrs incubation in drug free medium by flow cytometry; format: functional
CCRF-CEM [24] = assay: Cell cycle arrest in human CCRF-CEM cells assessed as accumulation at G2/M phase at 1 uM treated for 3 hrs followed by drug washout and 15 hrs incubation in drug free medium by flow cytometry; format: functional
CCRF-CEM [25] = assay: Cell cycle arrest in human CCRF-CEM cells assessed as accumulation at S phase at 10 uM treated for 3 hrs followed by drug washout and 15 hrs incubation in drug free medium by flow cytometry; format: functional
CCRF-CEM [26] = assay: Cell cycle arrest in human CCRF-CEM cells assessed as accumulation at subG1 phase at 10 uM treated for 3 hrs measured for 15 hrs after nocodazole treatment by flow cytometry in presence of mitotic inhibitor nocodazole; format: functional
CCRF-CEM [27] = assay: Cell cycle arrest in human CCRF-CEM cells assessed as accumulation at S phase at 1 uM treated for 3 hrs measured for 15 hrs after nocodazole treatment by flow cytometry in presence of mitotic inhibitor nocodazole; format: functional

SMILES	Activity [1] [%]	Activity [2]	Activity (CCRF-CEM [3]) [%]	Activity (CCRF-CEM [4]) [%]	Activity (CCRF-CEM [5]) [%]	Activity (CCRF-CEM [6]) [%]	Activity (CCRF-CEM [7]) [%]	Activity (CCRF-CEM [8]) [%]	Activity (CCRF-CEM [9]) [%]	Activity (CCRF-CEM [10]) [%]	Activity (CCRF-CEM [11]) [%]	Activity (CCRF-CEM [12]) [%]	Activity (CCRF-CEM [13]) [%]	Activity (CCRF-CEM [14]) [%]	Activity (CCRF-CEM [15]) [%]	Activity (CCRF-CEM [18]) [%]	IC50 (CCRF-CEM [19]) [µM]	Activity (CCRF-CEM [20]) [%]	Activity (CCRF-CEM [24]) [%]	Activity (CCRF-CEM [27]) [%]	other results
CO[n+]1cc2c(c3ccccc31)C(=O)c1[nH]c3ccccc3c1C2=O	11	Active	–	–	–	–	–	–	–	–	–	–	–	–	–	–	–	–	–	–	–
O=C1c2c[n+]([O-])c3ccccc3c2C(=O)c2[nH]c3ccccc3c21 [CALOTHRIXIN A]	18	Active	15.3	50.1	37	4	17.3	29.5	16	9.1	8.3	51.4	19.4	13	47.3	13.3	0.2	4.2	19	8.7	Activity (CCRF-CEM [16]): 23.6%; Activity (CCRF-CEM [17]): 16.8%; Activity (CCRF-CEM [21]): 7.5%; Activity (CCRF-CEM [22]): 7.7%; Activity (CCRF-CEM [23]): 10.3%; Activity (CCRF-CEM [25]): 15.3%; Activity (CCRF-CEM [26]): 2.1%
O=C1c2[nH]c3ccccc3c2C(=O)c2cnc3ccccc3c21 [CALOTHRIXIN B]	24	Active	18.2	51.4	18.2	4.5	17.6	18.8	7.9	11.2	25.3	55.6	17.3	7.7	55.6	7.4	1.05	4.6	16.5	4.8	Activity (CCRF-CEM [16]): 18.6%; Activity (CCRF-CEM [17]): 61.5%; Activity (CCRF-CEM [21]): 4.6%; Activity (CCRF-CEM [22]): 6.2%; Activity (CCRF-CEM [23]): 7.5%; Activity (CCRF-CEM [25]): 17%; Activity (CCRF-CEM [26]): 6.4%
CC[C@@]1(O)C(=O)OCc2c1cc1n(c2=O)Cc2cc3ccccc3nc2-1 [CAMPTOTHECIN]	–	–	15.5	–	–	–	–	21.7	18	–	–	–	–	–	34.6	23.6	0.04	17.5	28.4	10.3	–
C[n+]1cc2c(c3ccccc31)C(=O)c1[nH]c3ccccc3c1C2=O.[I-] [N-METHYLCALOTHRIXIN B]	11	Active	17	51.7	21.7	3.2	17.8	20.1	10.6	11.8	5.1	50.3	20.2	11.6	51	6.9	5.13	5.4	19.6	4.9	Activity (CCRF-CEM [16]): 19%; Activity (CCRF-CEM [17]): 18.8%; Activity (CCRF-CEM [21]): 11.3%; Activity (CCRF-CEM [22]): 3.7%; Activity (CCRF-CEM [23]): 9.8%; Activity (CCRF-CEM [25]): 15.1%; Activity (CCRF-CEM [26]): 6.9%
